Source: patent US8273730B2, “Use of estriol in low doses” (Italfarmaco, SA, priority 2007, dated 2012)

System: vaginal atrophy in female ovariectomized Wistar Han rats
Assay: Assay I: assessment of the effect on vaginal atrophy (vaginal smears: cornified cells, maturation index, overall trophism)
Type: in vivo, rat
Settings: dose 10 times less than the usual dose; rats of both groups (cream and gel)
Protocol: In this study a total of 8 female ovariectomized Wistar Han rats were used, which were randomly distributed into 2 groups with 4 animals each. Group A was treated with Formulation 1 whereas Group B was treated with Formulation 2.
After 18 days had elapsed from the reception of the ovariectomized animals, several vaginal smears were periodically performed in each rat, until the menopausal condition (particularly vaginal atrophy) was verified in all the rats, determining the maturation index of the vaginal epithelium.
Once the treatment had started, Formulations 1 (0.005% estriol cream) and 2 (0.005% estriol gel) were administered to experimental Group A and B, respectively, once a day for 5 days. The administration was carried out by vaginal route, in an amount of 5.8 mg of formulation/animal (corresponding to 0.29 μg of estriol/animal), using a positive displacement multipipette equipped with a special tip. […]
The effect of the treatment with each of the formulations was assessed by means of the appearance of cornified cells, the determination of the maturation index of the vaginal epithelium and the evaluation of the overall trophism.

## C[C@]12CC[C@@H]3c4ccc(O)cc4CC[C@H]3[C@@H]1C[C@@H](O)[C@@H]2O [estriol]
  Effect on vaginal atrophy condition: reverses the vaginal atrophy condition
